The text below walks through data of patent US7968516B2, “Treatment of multiple sclerosis and other autoimmune diseases by use of calpin inhibitors” (ProTor Pharma Corporation, priority 2004, dated 2011).

The test system of data set [1] is chronic phase of EAE in C57BL/6J mice. The data set can be described thus: Experiment 4: chronic phase EAE clinical scores. To be noted: 30 days. Format: in vivo. As to the method:
(§1) Clinical evaluation: Mice were evaluated daily for clinical signs of disease for up to 19 days after inoculation. Clinical severity was assessed on a scale of 0-6 as follows: • […] abnormality • 1 ? mild hind limb weakness (some difficulty righting themselves when turned on their backs), sometimes associated with a weak or floppy tail. • 2 ? moderate hind limb weakness associated with a floppy tail. • 3 ? paralysis of hind limbs, sometimes more marked on one side, but no forelimb weakness. • 4 ? hind leg paralysis accompanied by forelimb weakness. • 5 ? quadriplegia; paralysis of both hind limbs and forelimbs. • 6 ? moribund or death.
The chronic phase of EAE occurs after the clinical score of an affected mouse reaches a plateau at the highest level of the acute phase of the disease. In this chronic phase, more extensive damage occurs to nerve axons, beyond the demyelination observed in the acute phase of the disease (22). EAE was induced in 7-8 week-old female C57BL/6J “mice” by subcutaneous (s.c.) injection in each flank with 100 μl of an emulsion containing […] Freund's Adjuvant supplemented with 500 μg heat inactivated mycobacterium tuberculosis (Sigma St. Louis, Mo.) and 300 μg MOG 35-55. 100 ng of Pertussis toxin (PT) was given intraperitoneally on days 0 and 2 post-immunization. […]

A short description of data set [2]: Experiment 7: plasma and retina concentrations after oral CLA-acetal. To be noted: after 10 mg/kg oral CLA-acetal. Type of data set: in vivo, Sprague-Dawley rats. As to the method: Male Sprague-Dawley rats (n=5 per time point, weight 200-250 g) were administer 10 mg/kg CLA-acetal by oral gavage, formulated as a 0.6% solution in phosphate-buffered saline. At 0.1, 0.25, 0.5, 1, 2, 4, 8, 12 and 24 hours, the rats were anesthetized, blood samples were collected, and the retinas were isolated. The plasma samples (200 μL) were treated with 1 mL methanol and centrifuged to remove protein. The supernatants from centrifugation were evaporated, and the residue was taken up in 0.02% aqueous ammonium heptafluorobutyrate (1 mL). The retina samples were homogenized, treated with methanol, centrifuged, and evaporated, and the residue was taken up in 0.02% aqueous ammonium heptafluorobutyrate (1 mL). The plasma and retinal concentrations of CLA and CLA-acetal were determined by liquid chromatography followed by turbo ion spray mass spectrometry on an MDS-Sciex API 4000 triple-quadropole mass spectrometer equipped with a turbo ion spray source. Elution peaks yielding ions corresponding to CLA or CLA-acetal were integrated and used to determine the amount of compound present, by reference to standards. Data reduction was performed using Sciex Analyst version 1.3 software. The peak concentrations (Cmax) were estimated from the concentrations of CLA measured over time.

The test system of data set [3] is outer hair cells of the cochlea. The data set can be described thus: Experiment 6: acoustic trauma, outer hair cell counts. Type of data set: in vivo, chinchillas. To be noted: 7 mg/kg/day i.p. for seven days; as a function of distance from apex of cochlea. As to the method: (§2) Twelve chinchillas were divided into treatment and control groups (six animals each). The treatment groups received 7 mg/kg/day CLA i.p., for seven days. The control groups received an identical volume of PBS vehicle. Starting on day 0, all of the animals were exposed to a 105 decibel sound pressure level (SPL) noise with a frequency band centered on 4 kilohertz (kHz). The noise exposure lasted for 48 hours, ending two days after the beginning of the dose. Approximately 4 weeks after the noise exposure and dosing, the animals were anesthetized, tracheotimized, and placed upon a heating pad (37 degrees C.). A silver-ball electrode was attached to the round window of the left and right ears to record the compound action potential (CAP). CAP input functions were recorded at 0.5, 1, 2, 4, 8, 16 kHz tone burst levels generated by a digital-to-analog converter attached to a computer. The CAP threshold shift is the change in sound level required to generate an action potential at the electrode subsequent to noise exposure, and increases in the threshold shift reflect increased hearing loss. […] After the CAP threshold shifts were measured, the animals were decapitated, and the cochleae were removed. The hair cells from 11 cochleae were evaluated histologically. […] The numbers of outer hair cells (#OHC) were counted as a function of the distance from the apex of the cochlea. […]

Data set [4] has as its system amyloid precursor protein (APP). The data set can be described thus: Experiment 4: accumulation of amyloid precursor protein in axons. To be noted: spinal cord, day 30, anti-APP antibody. Format: in vivo, mice. From the text:
Spinal cord tissue taken from mice at day 30 was stained with a fluorescently-labeled anti-APP antibody.

For data set [5], the system named is spinal cord white matter of EAE mice. The data set can be described thus: Experiment 2: H&E staining, cellular infiltration of spinal cord white matter. To be noted: CLA-treated EAE mice, tissues at end of experiment. Type of data set: in vivo. As to the method:
Hematoxylin and Eosin Staining (H&E): H&E staining was used to show cellular infiltration of spinal cord white matter in mice with acute EAE in comparison with other groups of CFA control and CLA-treated EAE mice, as previously described (14). All staining was performed on tissues that were collected at the end of the experiment. In FIG. 3, 6-10 μm tissue sections were prepared from spinal cords of all mice at the end of the experiment. These tissues were stained with H&E to show inflammatory infiltration (indicated by arrows). A: CFA control; B: MOG/CFA immunized; C: MOG/CFA immunized and CLA-treated. 20× magnification.

In data set [6] the test system is chinchillas exposed to 105 decibel SPL noise. The data set can be described thus: Experiment 6: acoustic trauma, compound action potential (CAP) threshold shift. Type of data set: in vivo. The conditions noted are these: 7 mg/kg/day i.p. for seven days; about 4 weeks after noise exposure. As to the method: as §2
Data set [7] has as its system spinal cord axons of EAE mice. The data set can be described thus: Experiment 4: axonal integrity by LFB staining. The conditions noted are these: day 30 post-immunization. Format: in vivo. From the text: Evaluation of axonal integrity using LFB staining: Spinal cord tissue was taken from mice at day 30 post-immunization, approximately 13 days into the chronic phase of EAE. Myelin is stained a blue color by LFB, and the appearance of a normal myelin-coated axon, taken from spinal cord tissue, is shown longitudinally in FIG. 8A.

Data set [8] relates to MOG aa35-55 induced EAE in C57BL/6J mice. The data set can be described thus: Experiment 3: EAE clinical scores, CLA twice daily after disease process started. Type of data set: in vivo. As to the method: as §1
To induce EAE, mice were each inoculated once with MOG aa35-55 in Complete Freund's Adjuvant (CFA) and Pertussis toxin as previously described. Thirty 7 to 8-week-old female C57BL/6J mice (Jackson Laboratories, Bar Harbor, Mass.) were used in this experiment. […] Controls included two groups of 4 mice for CLA only and CFA/PT only and 4 were left as normal controls. CLA was dissolved in PBS and each mouse in the treatment group was injected i.p. with 200 μl of PBS containing 0.5 mg of CLA every 12 hours until the end of the experiment on day 25 pi. Mice were evaluated daily for clinical signs and symptoms of EAE and graded on a 0-6 scale for up to 25 days after inoculation as detailed above. Scores of asymptomatic mice (score=0) were included in the calculation of the daily mean clinical score for each group.

Data set [9] relates to spinal cord white matter of EAE mice. The data set can be described thus: Experiment 2: Luxol Fast Blue staining, myelin content of spinal cord. Type of data set: in vivo. The conditions noted are these: lumbar spinal cord, CLA-treated EAE mice. As to the method:
Luxol Fast Blue (LFB) Staining of Spinal Cord Tissues: This staining method, which identifies changes in myelin content of CNS tissues, was performed as previously described (39). Six-10 μm tissue sections were prepared from the lumbar spinal cords of all mice at the end of the experiment. The sections were stained with LFB and counterstained with eosin and cresyl violet to observe changes in the myelin content of the control and treatment groups: A: CFA control; B: MOG/CFA immunized: C; MOG/CFA immunized and CLA-treated. 20× magnification. All myelin containing regions stain blue.

Data set [10] concerns MOG aa35-55 induced EAE in C57BL/6J mice. The data set can be described thus: Experiment 1: EAE clinical scores, CLA started at immunization. Type of data set: in vivo. As to the method: To induce EAE, 7-8 week-old female C57BL/6J mice (Jackson Laboratories, Bar Harbor, Md.) were used. Animals were housed according to IACUC regulations in an AAALAC certified facility. Each was injected subcutaneously (s.c.) at two sites on the flanks with 300 μg of myelin oligodendrocyte glycoprotein (MOG) peptide 35-55 in Complete Freund's Adjuvant (CFA) twice with a one week interval between injections, as previously reported (14). Pertussis toxin (PT) was given intraperitoneally on days 0 and 2 post-immunization. CLA was administered to 12 MOG/CFA immunized mice, i.p. at an initial dose of one mg/mouse, starting on the day of the second immunization, followed by 0.5 mg/mouse/day until the end of the experiment, which lasted 19 days. […]
as §1, with “death. […]” for “death.”

A further data set has as its system calpain. The data set can be described thus: Experiment 2: immunofluorescent staining for calpain, CD11b and CD45 in spinal cord white matter. Type of data set: in vivo. To be noted: untreated versus CLA-treated EAE mice. As to the method:
Expression of Calpain in Spinal Cord White Matter: Expression of calpain was determined in spinal cord tissues collected from all experimental and control groups of mice at the end of the experiment. Sections of paraformaldehyde-fixed tissues were stained with antibodies against calpain (FITC conjugated), CD11b (MΦ/microglia marker)(Texas Red-conjugated) and CD45 (leukocyte common antigen) (FITC-conjugated). Referring to FIG. 5, six 10 μm sections were stained with anti-calpain antibody and specific cell marker antibodies (CD45, CD11b). Positive staining for calpain (A, B, C); cells positive for MΦ/microglia marker (CD11b^+) (D, E, F); cells positive for leukocyte common antigen (CD 45^+)(G, H, I). 20× magnification. […] All leukocytes including MΦ, but not microglia, are stained with CD45.

For data set [11] the following is noted: cited from earlier work.
For data set [12], the system named is cochlear and vestibular hair. The conditions noted are these: cited from earlier work.
Another data set relates to EAE in rats. The conditions noted are these: cited from earlier work.
Where [13] appears, read: CLA 0.5 mg i.p. every 12 hours from day 7 pi.
Where [14] appears, read: CLA twice daily started after signs of stage 2 EAE.

Structures are written as SMILES. Where a SMILES comes first, the peptide text is derived from it. [ ]: non-standard residue; d: D form. Cya = N[CH](CS(=O)(=O)O)C(=O)O

Take `CC(C)CC(NC(=O)C(N)CS(=O)(=O)O)C(=O)NC(C=O)CCCNC(=N)N` (stereo not drawn) [CLA, cysteyl-leucyl-argininal] (H-[Cya]-Leu-Arg-aldehyde; configuration not given here): the maximum clinical score entry in data set [1] (CLA 2 mg/mouse/day i.p. from day 7 (prior to onset)) is “below 0.5”. In data set [1] (CLA 2 mg/mouse/day i.p. from day 12 (after onset)), this compound yielded a maximum clinical score below 1.0. In addition, the “concentrations in retina compared with plasma” value in [2] was “much higher in retina than in plasma”. For the same compound, the “numbers of outer hair cells (#OHC)” value in data set [3] is listed as “increase in the number of outer hair cells at all distances from the apex”. Further, the “accumulation of APP in axons” value in [4] was “reduces accumulation of APP”. For the same compound, in data set [5], the “cellular infiltration and perivascular cuffing (H&E)” value was “moderate cellular infiltration and perivascular cuffing”. Further, in data set [6], the CAP threshold shift result is on record as “decreased the CAP threshold shift”. The “axonal integrity (LFB staining)” value in data set [7] is on record as “marked improvement in axonal integrity”. Also, in data set [8] (setting [13]), the “onset of signs of EAE” value worked out at 15 day pi and the “severity of EAE symptoms” value is “did not develop severe paralysis of the limbs”. In addition, in [8] (setting [14]), the “average clinical score (ACS) on day 17 pi” value is on record as 1.60 and the “clinical score on day 25 pi” value is on record as “less than two”. In addition, the “clinical score on day 25 pi” value in data set [8] (D7 CLA-treated MOG/CFA mice) is given as “less than one”. Further, the “average clinical score (ACS) on day 17 pi” value in data set [8] (D7 CLA-treated MOG/CFA mice, 0.5 mg i.p. every 12 hours) is reported as 0.5. For the same compound, the “health of CLA only mice” value in data set [8] (control mice, CLA only) is recorded as “remained healthy”. The “demyelination (LFB staining)” value in data set [9] is given as “fewer areas of demyelination”. Further, the “average clinical score (ACS)” value in data set [10] (MOG/CFA immunized mice, CLA i.p. one mg/mouse then 0.5 mg/mouse/day, scale 0-6, 19 days) is listed as 1.86. Moreover, the “effect of CLA only or CFA/CLA on mice” value in data set [10] (control mice not immunized with MOG) is given as “no effect”. In addition, in the data set with calpain, the “CD45+ cells (leukocytes)” value was “only marginally higher than CLA-treated EAE mice”, the “expression of calpain in spinal cord white matter” value was “elevated in untreated EAE mice (FIG. 5B) as compared with CLA-treated EAE mice” and the “presence of macrophages/microglia (CD11b+ cells)” value is listed as “higher in untreated EAE mice (FIG. 5E) than CLA-treated EAE”.
Consider `CC(=O)N[C@@H](CC(C)C)C(=O)N[C@@H](CC(C)C)C(=O)N[C@H](C=O)CCCNC(=N)N` [leupeptin], for which the cellular permeability result in data set [11] was “poor cellular permeability”. Moreover, the “protection from gentamycin ototoxicity” value in data set [12] was “protects cochlear and vestibular hair from gentamycin oxotoxicity”. Also, the “suppression of EAE” value in the data set with EAE in rats is reported as “suppressing EAE”.
